For experiment [1], the system named is human Rhinovirus (HRV). Put plainly: In vivo Study II: human volunteers pre-treated with CLA, intranasal human Rhinovirus challenge, Jackson Score. As for the experimental part: The following protocol was used in all of Examples 4 to 10.
76 human volunteers suffering from the common cold were used in the study. 43 subjects were administered conjugated linoleic acid (CLA) and the other 33 subjects were given a placebo. The CLA used contained a 40:60 mixture of cis9, trans11: trans10, cis12 isomers.
The 43 subjects underwent pre-treatment with CLA at a level of 2 g/day for 4 weeks. 33 subjects underwent pre-treatment with placebo (HOSF; high oleic sunflower […]).
(§1) All subjects were inoculated at day 0 by intranasal exposure to human Rhinovirus (HRV) and the two groups were monitored daily for the next 5 days. The effects of the two types of treatment were determined by using the Jackson Score (validated in severity of symptoms) and the effects of the symptoms on its own on day 0-5.
Symptoms were assessed using a Jackson Score validated in severity from 0=absent to 3=very severe.

The test system of experiment [2] is human Rhinovirus (HRV). Nature of the experiment: In vivo study: human volunteers pre-treated with CLA, intranasal human Rhinovirus challenge, Jackson Score. The settings on record: CLA 1.7 g/day for 4 weeks pre-treatment. As for the experimental part:
45 human volunteers suffering from the common cold were used in the study. 21 subjects were administered conjugated linoleic acid (CLA) and the other 24 subjects were given a placebo.
The 21 subjects underwent pre-treatment with CLA at a level of 1.7 g/day for 4 weeks. 24 subjects underwent pre-treatment with placebo (HOSF; high oleic sunflower […]).
as §1
Symptoms were assessed using a Jackson Score validated in severity from 0=absent to 3=very severe. The following symptoms were rated:
The primary endpoint for the study was the frequency of clinical colds defined in accordance with the modified Jackson criteria.
Total symptoms of the individuals were checked in the morning (am) and in the afternoon (pm). The results of the test in the afternoon are shown in FIG. 2 and the results of the test in the morning are shown in FIG. 3; both plots are of Total Symptom Score against number of days. In FIGS. 2 and 3, results for the group of people treated with CLA are shown on the left in grey (Series 1) and for people given the placebo are shown on the right in dark grey (Series 2).
The symptoms assessed were sneezing, runny nose, obstruction, stuffiness, sore throat, cough, headache, malaise and chilliness. The total symptom score was determined by adding the scores for the symptoms during the 5 day period. FIG. 4 is a graph showing total symptom score and individual symptoms for the CLA group (light grey bars) and the placebo group (dark grey bars).

The mark [3] stands for this setting: CLA 2 g/day for 4 weeks pre-treatment.

As to conjugated linoleic acid [CLA], in the experiment on human Rhinovirus (HRV) [1] (setting [3]), the “reduction in Jackson cold severity versus placebo” value is given as “about 12%” and the “reduction in total Jackson score over 5 days versus placebo” value is “about 7%”. The “average total Jackson score over 5 days” value in the experiment with human Rhinovirus (HRV) [1] (CLA 2 g/day for 4 weeks pre-treatment, AM and PM, five days post inoculation, placebo 9.30) is recorded as 8.72. Further, the “total runny nose score in 5 days” value with human Rhinovirus (HRV) [1] (CLA 2 g/day for 4 weeks pre-treatment, ranking 1-3, AM and PM, five days, placebo 2.14) is given as 2.025. Besides, the “total sneezing score in 5 days” value with human Rhinovirus (HRV) [1] (CLA 2 g/day for 4 weeks pre-treatment, ranking 1 to 3, AM and PM, five days, placebo 1.2) amounted to 0.5. In addition, the “total sore throat score for 5 days” value in the experiment with human Rhinovirus (HRV) [1] (CLA 2 g/day for 4 weeks pre-treatment, ranking 1 to 3, AM and PM, five days, placebo 3.1) came out at 2.5. In addition, the “total symptom score over 5 days” value with human Rhinovirus (HRV) [1] (CLA 2 g/day for 4 weeks pre-treatment, sum of symptom scores during 5 day period, placebo 12.1) is 11.3. Besides, the “Jackson cold severity, average score” value with human Rhinovirus (HRV) [1] (CLA 2 g/day for 4 weeks pre-treatment, total score (from 10), AM and PM, five days post inoculation, placebo 1.09) is reported as 0.975. Besides, in the experiment on human Rhinovirus (HRV) [1] (CLA (40:60 cis9,trans11:trans10,cis12) 2 g/day for 4 weeks pre-treatment, all placebo volunteers infected), the volunteers not infected entry was “Seven out of the 43”. Moreover, the “severity of the common cold (Jackson Score) versus placebo” value with human Rhinovirus (HRV) [2] (at day 2 after HRV inoculation, FIG. 1) is listed as “lower”. Besides, the “total symptom score (am and pm) versus placebo” value in the experiment with human Rhinovirus (HRV) [2] (day 2 until the end of the study, FIGS. 2 and 3) was “lower”. Besides, in the experiment on human Rhinovirus (HRV) [2] (scores added over 5 day period, FIG. 4), the “severity of the symptoms assessed separately versus placebo” value is given as “very clearly lower”.
